In US20200297746A1, “COMPOSITION FOR REDUCING WEIGHT AND LOWERING LIPID, PREPARATION METHOD THEREFOR AND USE THEREOF” (CATCH BIO-SCIENCE & TECHNOLOGY CO., LTD., priority 2017, published 2020):

How the values were obtained:
[1] = tested on: hyperlipemia model rats fed with the high-fat feed; experiment: Blood lipid lowering effect in rats fed high-fat feed, serum biochemical parameters by enzymatic method; format: in vivo, male Spague-Dawlay (SD) Rats; details: high-fat feed SD rats, 80 mg/kg via lavage once daily for 7 weeks, x ± s, n = 10
Source text: The feed is commercially available. The high-fat feed comprises 75% base feed, 2% cholesterol, 0.5% sodium cholate, 15% lard, and 7.5% egg yolk. 150 male Spague-Dawlay (SD) Rats of clean grade, each aged 4 weeks and weighed 150-180 g, are provided by Shanghai Lingchang Biotechnology Co., Ltd. The rats are fed in separate plastic cages, given free access to water and feed for 7 days to adapt to the environment, and then quarantined.
140 rats of similar weight are selected from the 150 rats, randomly divided into 14 groups, with 10 rats in each group, including experimental groups 1-8, comparative experiment groups 1-4, a model control group and a blank control group. Rats in the blank control group are fed with the base feed, and rats in other groups are fed with the high-fat feed.
Rats in the experimental groups 1-8 are respectively administered via lavage with 80 mg/kg of the pharmaceutical compositions prepared in Examples 1-8; rats in the comparative experiment groups 1-4 are respectively administered via lavage with 80 mg/kg of phloridzin, 80 mg/kg of the extract from Curcuma longa L., 80 mg/kg of epigallocatechin gallate and 80 mg/kg of the extract from sennae folium; and rats in the model control group and the blank control group are administered via lavage with equivalent amounts of saline.
Rats in each group receive administration once daily for 7 continuous weeks.
(3) After 7 weeks of administration, blood are collected from orbital posterior venous plexus of the rats and analyzed with an enzymatic method on a full-automatic biochemical analyzer to quantitatively determine levels of triglycerides (TG), total cholesterol (TC), high density lipoprotein cholesterol (HDL-C), and low density lipoprotein cholesterol (LDL-C) in serum.
Data processing is performed using SPSS 20.0 software. Differences between the groups are analyzed using a single-factor variance analysis.

[2] = tested on: obesity model rats fed with the high-fat feed; experiment: Weight reducing effect in rats fed high-fat feed, 7 weeks of administration via lavage; format: in vivo, male Spague-Dawlay (SD) Rats; details: high-fat feed SD rats, 80 mg/kg via lavage once daily for 7 weeks, x ± s, n = 10
Source text: The feed is commercially available. The high-fat feed comprises 75% base feed, 2% cholesterol, 0.5% sodium cholate, 15% lard, and 7.5% egg yolk. 150 male Spague-Dawlay (SD) Rats of clean grade, each aged 4 weeks and weighed 150-180 g, are provided by Shanghai Lingchang Biotechnology Co., Ltd. The rats are fed in separate plastic cages, given free access to water and feed for 7 days to adapt to the environment, and then quarantined. 140 rats of similar weight are selected from the 150 rats, randomly divided into 14 groups, with 10 rats in each group, including experimental groups 1-8, comparative experiment groups 1-4, a model control group and a blank control group. Rats in the blank control group are fed with the base feed, and rats in other groups are fed with the high-fat feed. Rats in the experimental groups 1-8 are respectively administered via lavage with 80 mg/kg of the pharmaceutical compositions prepared in Examples 1-8; rats in the comparative experiment groups 1-4 are respectively administered via lavage with 80 mg/kg of phloridzin, 80 mg/kg of the extract from Curcuma longa L., 80 mg/kg of epigallocatechin gallate and 80 mg/kg of the extract from […] folium; and rats in the model control group and the blank control group are administered via lavage with equivalent amounts of saline. Rats in each group receive administration once daily for 7 continuous weeks. (1) After 7 weeks of administration, the weight and weight gain of rats in each group are observed and recorded; (2) Rats are anesthetized with ether, and fat pads surrounding the genitalia and kidney and the fat of the omentum are separated and weighed. A fat-to-weight ratio is calculated according to the following equation: fat-to-weight ratio (%)=(weight of fat surrounding the genitalia+weight of fat surrounding kidney+weight of fat of the omentum)/body weight×100%; Data processing is performed using SPSS 20.0 software. Differences between the groups are analyzed using a single-factor variance analysis.

Compound: O=C(CCc1ccc(O)cc1)c1c(O)cc(O)cc1O[C@@H]1O[C@H](CO)[C@@H](O)[C@H](O)[C@H]1O [Comparative experiment Group 1, phloridzin]
- HDL-C [1]: 0.72 ± 0.10 mmol/L
- LDL-C [1]: 0.49 ± 0.10 mmol/L
- TC [1]: 2.21 ± 0.51 mmol/L
- TG [1]: 1.56 ± 0.39 mmol/L
- Body weight gain [2]: 161.35 ± 20.01 g
- Fat-to-weight ratio [2]: 5.87 ± 0.72 %

Compound: O=C(O[C@@H]1Cc2c(O)cc(O)cc2O[C@@H]1c1cc(O)c(O)c(O)c1)c1cc(O)c(O)c(O)c1 [Comparative experiment Group 3, epigallocatechin gallate]
- HDL-C [1]: 0.59 ± 0.12 mmol/L
- LDL-C [1]: 0.55 ± 0.12 mmol/L
- TC [1]: 2.55 ± 0.43 mmol/L
- TG [1]: 1.77 ± 0.41 mmol/L
- Body weight gain [2]: 189.76 ± 22.25 g
- Fat-to-weight ratio [2]: 7.48 ± 0.53%
